Laboratory results from patent US20210038730A1, “PEPTIDE NANOFIBERS” (UNIVERSITY OF PORTSMOUTH HIGHER EDUCATION CORPORATION, priority 2018, published 2021).

Test: Release from 3D printed cellulose-sodium alginate bioinks
Assay type: physicochemical
Settings: PBS
Description: Peptide nanofibers were embedded in cellulose nanocrystals and sodium alginate hydrogels. Cellulose nanocrystals were synthesised by sulphuric acid degradation (45% w/v, 150 mls) of cellulose (15 g, Western Hemlock) at 50° C. over 90 minutes under stirring. Cold-deionised water was used to quench reaction and acid was removed by centrifugation (4,000 rpm, 10 minutes). Cellulose nanocrystals were dialysed (12-14 kDa for cytochrome C, Medicell Ltd) over 5 L with 6 changes over 24 hours. Resulting suspension was probe sonicated (400 watt, 23% amplitude, 10 minutes) in 50 mLs aliquots. The resulting suspension was centrifuged (4,000 rpm, 10 minutes) and supernatant was stored in the refrigerator. Cellulose nanocrystals (CNCs, 4.5% w/w, 2 g) were loaded onto a syringe attached to a three-way valve, where a syringe loaded sodium alginate (6% w/w in 4.6% glucose, 1.7 g). The CNCs were injected in the sodium alginate syringe and mixed 10 times (in each direction). Sample was collected in one syringe and a new syringe containing calcium chloride (0.1M, 0.9 mL). Sample was pushed into calcium chloride and mixed 5 times (in each direction) prior collecting the gel in one syringe and loading in cartridges. Peptide nanofibers (5 mg) were dispersed in 0.9 mL of 0.1M calcium chloride and mixed as above when needed. Release of paclitaxel loaded and TPGnRH gels in PBS (1×, 7.4, 6 mLs) was quantified as per HPLC method described previously (Example 7, Table 2). After an initial burst release, a controlled release profile is observed with gradual slow release over days. Resulting inks can be utilised for the production of nanofiber loaded implants for tumour patients.

For `CCCCCCCCCCCCCCCC(=O)Oc1ccc(C[C@H](NC(=O)[C@H](CO)NC(=O)[C@H](Cc2c[nH]c3ccccc23)NC(=O)[C@H](Cc2c[nH]cn2)NC(=O)[C@@H](N)CCC(=O)O)C(=O)NCC(=O)N[C@@H](CC(C)C)C(=O)N[C@@H](CCCNC(=N)N)C(=O)N2CCC[C@H]2C(=O)NCC(N)=O)cc1` [TPGnRH, Tyrosine (O-Palmitoyl)-Glu-GnRH], the “% release from 3D printed bioink” value (0 minutes) was 0%, the “% release from 3D printed bioink” value (1 minutes) was 15.4 ± 9.6% and the “% release from 3D printed bioink” value (5 minutes) was 15.4 ± 7.8%. For the same compound, the “% release from 3D printed bioink” value (10 minutes) was 16.3 ± 11.5%, the “% release from 3D printed bioink” value (15 minutes) was 15.4 ± 4.6% and the “% release from 3D printed bioink” value (30 minutes) was 16.4 ± 4.9%. For the same compound, the “% release from 3D printed bioink” value (45 minutes) was 14.7 ± 6.9%, the “% release from 3D printed bioink” value (60 minutes) was 19.7 ± 8.5% and the “% release from 3D printed bioink” value (90 minutes) was 20.6 ± 4.6%. For the same compound, the “% release from 3D printed bioink” value (120 minutes) was 21.8 ± 9.4%, the “% release from 3D printed bioink” value (240 minutes) was 20.6 ± 10.7% and the “% release from 3D printed bioink” value (360 minutes) was 22.6 ± 7.4%. The “% release from 3D printed bioink” value (1110 minutes) was 24.5 ± 7.9%, the “% release from 3D printed bioink” value (1440 minutes) was 28.5 ± 9.8% and the “% release from 3D printed bioink” value (2760 minutes) was 32.1 ± 9.7%.
